Legend:
CISH locus = assay: GUIDE-seq off-target identification in HEK293 cells constitutively expressing Cas9; assay type: cell-based; conditions: GuideSeq
From the text: Off-target Identification: The GUIDE-seq method was employed for unbiased discovery of off-target editing events (Tsai et al., 2015). In this study, HEK293 cells that constitutively express the S pyogenes Cas9 nuclease (“HEK293-Cas9” cells) were the source of Cas9. Alt-R® gRNA complexes were formed by combining Alt-R tracrRNA and Alt-R crRNA XT at a 1:1 molar ratio. gRNA complexes were delivered by nucleofection using the Amaxa™ Nucleofector™ 96-well Shuttle™ System (Lonza, Basel, Switzerland). For each nucleofection, 3.5×10^5 HEK293-Cas9 cells were washed with 1×PBS, resuspended in 20 μL solution SF (Lonza) and combined with 10 μM gRNA along with 0.5 μM GUIDE-seq dsDNA donor fragment. This mixture was transferred into one well of a Nucleocuvette™ Plate (Lonza) and electroporated using protocol 96-DS-150. DNA was extracted 72 hrs after electroporation using the GeneJET Genomic DNA purification kit (Thermo Fisher Scientific). NGS library preparation, sequencing, and operation of the GUIDE-seq software was performed as previously described except that Needleman-Wunch alignment was incorporated (Tsai et al., 2016).

[1] = tested on: iC9/CAR.19/IL-15 NK cells; assay: Activation of suicide gene in vitro with dimerizer AP1903; assay type: cell-based
Procedure: (§1) Activation of suicide gene in vitro and validation in vivo: The small-molecule dimerizer AP1903 (10 nM), was added to CB-NK cell cultures for 4 h. The elimination of transduced cells was evaluated by Annexin-V/Live dead staining. The efficacy of the suicide gene was also tested in vivo by treating tumor-bearing mice that had received iC9/CAR.19/IL-15+ NK cells (control or CISH KO) with two doses of AP1903 (50 μg each) intraperitoneally, 2 days apart on days 7 and 9. Two other groups of mice (control and CISH KO) served as control without AP1903 treatment. All mice were sacrificed on day 12, and blood and organs (Liver, spleen and bone marrow) were collected, processed and flow cytometry was performed to determine CAR-NK fraction and viability.

[2] = tested on: iC9/CAR.19/IL-15 CB-NK cells; assay: Suicide gene validation in vivo in Raji tumor-bearing mice; parameters: species or system mouse; conditions: dimerizer on days 7 and 9 post NK infusion, sacrifice day 12; both control and CISH KO cells
Procedure: as §1

Molecule	off-target sites / events (CISH locus)	time to apoptosis of transduced NK cells ([1]; 10 nM) [h]	apoptosis of transduced NK cells ([1]; 10 nM added to cultures)	reduction in iC9/CAR.19/IL-15 CB-NK cells in blood and tissues (liver, spleen, bone marrow) [2]
crRNA2: crRNA targeting CISH exon 4, sequence TGTACAGCAGTGGCTGGTGG (SEQ ID NO:2) (listed as DNA, chemistry not given here)	even higher frequencies of off-target events	–	–	–
CC[C@H](C(=O)N1CCCC[C@H]1C(=O)O[C@H](CCc1ccc(OC)c(OC)c1)c1cccc(OCC(=O)NCCNC(=O)COc2cccc([C@@H](CCc3ccc(OC)c(OC)c3)OC(=O)[C@@H]3CCCCN3C(=O)[C@@H](CC)c3cc(OC)c(OC)c(OC)c3)c2)c1)c1cc(OC)c(OC)c(OC)c1 [AP1903]	–	≤ 4	induced apoptosis of transduced NK cells	striking reduction
